These are literature values, as cited in patent US10286065B2 (priority 2014, dated 2019).

As for `CCC(=O)O[C@]1(C(=O)SCF)[C@H](C)C[C@H]2[C@@H]3C[C@H](F)C4=CC(=O)C=C[C@]4(C)[C@@]3(F)[C@@H](O)C[C@@]21C` [Fluticasone propionate], the “solubility in dimethyl sulfoxide and dimethylformamide” value (dimethyl sulfoxide and dimethylformamide) is listed as “freely soluble”. For the same compound, under “methanol and 95% ethanol”, the “solubility in methanol and 95% ethanol” value is “slightly soluble”. Further, the solubility in water result (water) is recorded as “practically insoluble”.
